{
  "source": "ChEMBL document CHEMBL5465560",
  "about": "“Selectivity Literature for EUbOPEN Chemogenomic Library” (2024)",
  "key": {"[1]": {"target": "T1, Ephrin type-A receptor 3 (Homo sapiens) (UniProt P29320)", "T1 sequence (whole entry)": "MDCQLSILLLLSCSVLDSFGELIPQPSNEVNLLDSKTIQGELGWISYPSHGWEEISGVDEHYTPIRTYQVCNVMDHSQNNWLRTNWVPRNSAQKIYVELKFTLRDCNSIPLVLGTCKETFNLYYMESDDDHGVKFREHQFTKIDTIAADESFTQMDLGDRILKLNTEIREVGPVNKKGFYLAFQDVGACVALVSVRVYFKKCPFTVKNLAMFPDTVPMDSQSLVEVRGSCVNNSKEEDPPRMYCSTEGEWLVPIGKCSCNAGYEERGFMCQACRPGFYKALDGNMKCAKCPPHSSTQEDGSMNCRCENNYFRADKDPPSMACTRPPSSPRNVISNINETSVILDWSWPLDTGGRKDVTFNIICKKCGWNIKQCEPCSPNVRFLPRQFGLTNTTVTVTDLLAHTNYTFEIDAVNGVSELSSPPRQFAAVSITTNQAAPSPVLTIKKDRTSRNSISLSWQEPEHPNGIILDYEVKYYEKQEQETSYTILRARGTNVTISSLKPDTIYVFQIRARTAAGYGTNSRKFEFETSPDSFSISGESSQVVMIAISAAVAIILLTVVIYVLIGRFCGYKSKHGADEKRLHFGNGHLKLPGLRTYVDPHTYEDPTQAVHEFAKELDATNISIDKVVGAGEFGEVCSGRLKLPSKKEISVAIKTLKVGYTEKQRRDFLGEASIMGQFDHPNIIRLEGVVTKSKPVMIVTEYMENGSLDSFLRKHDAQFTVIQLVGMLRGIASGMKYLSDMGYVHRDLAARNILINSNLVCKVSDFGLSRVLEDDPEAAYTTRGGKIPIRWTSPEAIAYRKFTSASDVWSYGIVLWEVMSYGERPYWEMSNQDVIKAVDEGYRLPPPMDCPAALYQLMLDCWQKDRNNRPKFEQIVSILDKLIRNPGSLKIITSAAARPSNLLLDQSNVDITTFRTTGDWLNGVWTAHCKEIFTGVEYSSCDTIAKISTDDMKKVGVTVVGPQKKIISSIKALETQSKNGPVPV", "assay": "Selectivity interaction (KinomeScan (DiscoverX)) EUB0000092b EPHA3", "conditions": "at 10 µM"}, "[2]": {"target": "Calcium/calmodulin-dependent protein kinase type 1G (Homo sapiens) (UniProt Q96NX5)", "sequence (Q96NX5 whole entry)": "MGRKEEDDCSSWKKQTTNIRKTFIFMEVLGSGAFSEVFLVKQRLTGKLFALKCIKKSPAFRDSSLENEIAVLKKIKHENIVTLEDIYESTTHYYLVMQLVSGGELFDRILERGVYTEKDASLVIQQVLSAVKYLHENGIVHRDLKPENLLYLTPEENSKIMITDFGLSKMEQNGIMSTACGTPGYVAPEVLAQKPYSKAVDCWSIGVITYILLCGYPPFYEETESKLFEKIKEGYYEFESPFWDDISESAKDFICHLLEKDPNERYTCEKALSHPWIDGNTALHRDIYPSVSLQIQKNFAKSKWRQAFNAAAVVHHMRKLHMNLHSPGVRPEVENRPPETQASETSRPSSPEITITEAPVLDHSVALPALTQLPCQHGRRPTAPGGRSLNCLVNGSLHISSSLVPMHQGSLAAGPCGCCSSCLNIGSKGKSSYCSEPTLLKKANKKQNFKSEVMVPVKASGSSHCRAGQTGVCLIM", "assay": "Selectivity interaction (KinomeScan (DiscoverX)) EUB0000655a CAMK1G", "conditions": "at 10 µM"}, "[3]": {"target": "T2, Serine/threonine-protein kinase BRSK2 (Homo sapiens) (UniProt Q8IWQ3)", "T2 sequence (whole entry)": "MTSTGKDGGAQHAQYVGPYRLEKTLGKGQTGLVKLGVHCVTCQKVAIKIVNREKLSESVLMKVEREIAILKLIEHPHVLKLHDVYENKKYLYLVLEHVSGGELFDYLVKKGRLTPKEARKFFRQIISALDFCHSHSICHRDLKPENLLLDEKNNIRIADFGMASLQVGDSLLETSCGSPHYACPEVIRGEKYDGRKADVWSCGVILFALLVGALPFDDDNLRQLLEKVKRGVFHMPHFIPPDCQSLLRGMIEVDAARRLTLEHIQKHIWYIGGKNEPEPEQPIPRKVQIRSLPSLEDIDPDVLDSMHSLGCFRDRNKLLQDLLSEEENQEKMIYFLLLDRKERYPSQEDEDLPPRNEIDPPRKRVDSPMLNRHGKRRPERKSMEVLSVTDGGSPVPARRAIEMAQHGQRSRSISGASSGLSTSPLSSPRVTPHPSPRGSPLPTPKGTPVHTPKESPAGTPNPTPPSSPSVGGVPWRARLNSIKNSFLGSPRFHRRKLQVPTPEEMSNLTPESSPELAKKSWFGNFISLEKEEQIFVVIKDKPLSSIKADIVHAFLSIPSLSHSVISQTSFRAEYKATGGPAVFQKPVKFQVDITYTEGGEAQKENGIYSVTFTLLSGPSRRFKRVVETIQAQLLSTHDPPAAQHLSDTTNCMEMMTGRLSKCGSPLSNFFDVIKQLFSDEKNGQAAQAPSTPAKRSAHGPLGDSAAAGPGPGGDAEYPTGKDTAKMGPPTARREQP", "assay": "Selectivity interaction (ProQinase) EUB0000171b BRSK2"}, "[4]": {"target": "T3, Serine/threonine-protein kinase tousled-like 1 (Homo sapiens) (UniProt Q9UKI8)", "T3 sequence (whole entry)": "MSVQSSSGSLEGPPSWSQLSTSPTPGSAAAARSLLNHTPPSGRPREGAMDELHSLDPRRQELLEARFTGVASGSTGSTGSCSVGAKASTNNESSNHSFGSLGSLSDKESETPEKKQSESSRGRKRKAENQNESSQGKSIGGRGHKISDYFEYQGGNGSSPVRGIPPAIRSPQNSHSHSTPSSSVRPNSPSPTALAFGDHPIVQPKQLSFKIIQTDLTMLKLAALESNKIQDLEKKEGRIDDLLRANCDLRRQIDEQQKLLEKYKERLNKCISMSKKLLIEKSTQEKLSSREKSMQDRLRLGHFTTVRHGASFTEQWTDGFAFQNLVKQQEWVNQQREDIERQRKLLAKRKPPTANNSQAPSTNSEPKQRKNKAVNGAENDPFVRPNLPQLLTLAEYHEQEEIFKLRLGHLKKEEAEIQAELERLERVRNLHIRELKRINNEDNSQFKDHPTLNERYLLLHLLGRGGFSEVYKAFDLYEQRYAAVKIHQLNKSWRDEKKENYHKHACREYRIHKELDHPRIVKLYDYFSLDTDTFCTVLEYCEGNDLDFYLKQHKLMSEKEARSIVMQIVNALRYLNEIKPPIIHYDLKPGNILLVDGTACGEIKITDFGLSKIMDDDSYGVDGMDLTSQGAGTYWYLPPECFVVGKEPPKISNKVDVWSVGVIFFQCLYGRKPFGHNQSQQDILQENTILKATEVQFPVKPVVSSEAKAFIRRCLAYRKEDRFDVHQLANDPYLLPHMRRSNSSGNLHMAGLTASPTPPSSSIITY", "assay": "Selectivity interaction (KinomeScan (DiscoverX)) EUB0001079a TLK1", "conditions": "at 1 µM"}, "[5]": {"target": "Ribosomal protein S6 kinase alpha-3 (Homo sapiens, UniProt P51812)", "sequence (P51812 whole entry)": "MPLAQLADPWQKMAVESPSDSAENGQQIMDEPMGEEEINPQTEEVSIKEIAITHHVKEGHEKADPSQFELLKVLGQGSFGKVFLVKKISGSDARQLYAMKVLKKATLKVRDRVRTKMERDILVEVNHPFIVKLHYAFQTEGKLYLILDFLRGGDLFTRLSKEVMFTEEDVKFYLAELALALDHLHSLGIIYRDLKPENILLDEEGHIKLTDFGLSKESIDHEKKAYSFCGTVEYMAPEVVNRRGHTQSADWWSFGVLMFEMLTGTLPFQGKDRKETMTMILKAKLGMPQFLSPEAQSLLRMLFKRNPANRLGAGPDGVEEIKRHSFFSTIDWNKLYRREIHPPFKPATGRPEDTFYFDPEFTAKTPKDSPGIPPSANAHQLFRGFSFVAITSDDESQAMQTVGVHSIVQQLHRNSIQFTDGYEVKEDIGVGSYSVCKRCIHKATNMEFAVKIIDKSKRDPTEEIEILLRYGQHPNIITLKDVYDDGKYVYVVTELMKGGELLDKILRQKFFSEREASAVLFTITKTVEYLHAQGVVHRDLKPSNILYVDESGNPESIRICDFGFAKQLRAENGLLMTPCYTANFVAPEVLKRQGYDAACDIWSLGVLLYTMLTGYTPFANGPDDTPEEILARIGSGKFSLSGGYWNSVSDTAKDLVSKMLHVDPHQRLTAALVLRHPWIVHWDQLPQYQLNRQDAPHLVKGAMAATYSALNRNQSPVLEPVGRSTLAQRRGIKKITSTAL", "assay": "Selectivity interaction (Millipore kinase profiler) EUB0000124b RPS6KA3", "conditions": "at 10 µM"}, "[6]": {"tested_on": "Phosphatidylinositol 4,5-bisphosphate 3-kinase catalytic subunit alpha isoform (Homo sapiens), P42336 [C420R]", "sequence (P42336 whole entry C420R, canonical isoform)": "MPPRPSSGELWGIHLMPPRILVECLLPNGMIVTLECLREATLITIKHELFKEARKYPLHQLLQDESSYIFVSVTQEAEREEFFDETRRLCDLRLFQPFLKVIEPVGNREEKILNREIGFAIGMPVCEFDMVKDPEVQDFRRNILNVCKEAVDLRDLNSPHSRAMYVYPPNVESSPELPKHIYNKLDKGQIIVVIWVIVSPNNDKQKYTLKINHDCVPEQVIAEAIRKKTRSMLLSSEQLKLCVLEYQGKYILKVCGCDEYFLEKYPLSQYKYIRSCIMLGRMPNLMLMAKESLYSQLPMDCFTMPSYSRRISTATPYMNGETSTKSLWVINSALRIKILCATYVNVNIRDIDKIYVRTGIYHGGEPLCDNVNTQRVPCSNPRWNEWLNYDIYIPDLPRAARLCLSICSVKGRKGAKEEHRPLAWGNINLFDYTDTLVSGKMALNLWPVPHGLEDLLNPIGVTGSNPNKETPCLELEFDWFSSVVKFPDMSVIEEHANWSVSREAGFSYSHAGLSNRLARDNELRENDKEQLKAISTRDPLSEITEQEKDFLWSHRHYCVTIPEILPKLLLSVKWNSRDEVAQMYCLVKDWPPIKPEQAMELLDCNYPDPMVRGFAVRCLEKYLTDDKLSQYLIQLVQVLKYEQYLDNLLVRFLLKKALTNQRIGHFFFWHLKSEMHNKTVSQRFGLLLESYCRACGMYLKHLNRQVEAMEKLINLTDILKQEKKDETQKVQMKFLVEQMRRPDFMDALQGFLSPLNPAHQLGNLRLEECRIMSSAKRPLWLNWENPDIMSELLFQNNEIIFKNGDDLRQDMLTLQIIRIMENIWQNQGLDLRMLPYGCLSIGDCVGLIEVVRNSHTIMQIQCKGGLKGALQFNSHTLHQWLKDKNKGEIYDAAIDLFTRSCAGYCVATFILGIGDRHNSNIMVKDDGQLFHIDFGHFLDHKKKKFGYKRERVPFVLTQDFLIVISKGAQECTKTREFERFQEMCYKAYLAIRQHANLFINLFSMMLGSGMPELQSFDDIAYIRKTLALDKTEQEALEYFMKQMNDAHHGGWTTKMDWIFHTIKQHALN", "conditions": "at 10 µM"}, "[7]": {"tested_on": "Phosphatidylinositol 4,5-bisphosphate 3-kinase catalytic subunit alpha isoform (Homo sapiens), P42336 [I800L]", "sequence (P42336 whole entry I800L, canonical isoform)": "as the sequence (P42336 whole entry C420R, canonical isoform) above, with R420C, I800L counted along it", "conditions": "at 10 µM"}, "[8]": {"target": "Serine/threonine-protein kinase MRCK beta (Homo sapiens) (UniProt Q9Y5S2)", "sequence (Q9Y5S2 whole entry)": "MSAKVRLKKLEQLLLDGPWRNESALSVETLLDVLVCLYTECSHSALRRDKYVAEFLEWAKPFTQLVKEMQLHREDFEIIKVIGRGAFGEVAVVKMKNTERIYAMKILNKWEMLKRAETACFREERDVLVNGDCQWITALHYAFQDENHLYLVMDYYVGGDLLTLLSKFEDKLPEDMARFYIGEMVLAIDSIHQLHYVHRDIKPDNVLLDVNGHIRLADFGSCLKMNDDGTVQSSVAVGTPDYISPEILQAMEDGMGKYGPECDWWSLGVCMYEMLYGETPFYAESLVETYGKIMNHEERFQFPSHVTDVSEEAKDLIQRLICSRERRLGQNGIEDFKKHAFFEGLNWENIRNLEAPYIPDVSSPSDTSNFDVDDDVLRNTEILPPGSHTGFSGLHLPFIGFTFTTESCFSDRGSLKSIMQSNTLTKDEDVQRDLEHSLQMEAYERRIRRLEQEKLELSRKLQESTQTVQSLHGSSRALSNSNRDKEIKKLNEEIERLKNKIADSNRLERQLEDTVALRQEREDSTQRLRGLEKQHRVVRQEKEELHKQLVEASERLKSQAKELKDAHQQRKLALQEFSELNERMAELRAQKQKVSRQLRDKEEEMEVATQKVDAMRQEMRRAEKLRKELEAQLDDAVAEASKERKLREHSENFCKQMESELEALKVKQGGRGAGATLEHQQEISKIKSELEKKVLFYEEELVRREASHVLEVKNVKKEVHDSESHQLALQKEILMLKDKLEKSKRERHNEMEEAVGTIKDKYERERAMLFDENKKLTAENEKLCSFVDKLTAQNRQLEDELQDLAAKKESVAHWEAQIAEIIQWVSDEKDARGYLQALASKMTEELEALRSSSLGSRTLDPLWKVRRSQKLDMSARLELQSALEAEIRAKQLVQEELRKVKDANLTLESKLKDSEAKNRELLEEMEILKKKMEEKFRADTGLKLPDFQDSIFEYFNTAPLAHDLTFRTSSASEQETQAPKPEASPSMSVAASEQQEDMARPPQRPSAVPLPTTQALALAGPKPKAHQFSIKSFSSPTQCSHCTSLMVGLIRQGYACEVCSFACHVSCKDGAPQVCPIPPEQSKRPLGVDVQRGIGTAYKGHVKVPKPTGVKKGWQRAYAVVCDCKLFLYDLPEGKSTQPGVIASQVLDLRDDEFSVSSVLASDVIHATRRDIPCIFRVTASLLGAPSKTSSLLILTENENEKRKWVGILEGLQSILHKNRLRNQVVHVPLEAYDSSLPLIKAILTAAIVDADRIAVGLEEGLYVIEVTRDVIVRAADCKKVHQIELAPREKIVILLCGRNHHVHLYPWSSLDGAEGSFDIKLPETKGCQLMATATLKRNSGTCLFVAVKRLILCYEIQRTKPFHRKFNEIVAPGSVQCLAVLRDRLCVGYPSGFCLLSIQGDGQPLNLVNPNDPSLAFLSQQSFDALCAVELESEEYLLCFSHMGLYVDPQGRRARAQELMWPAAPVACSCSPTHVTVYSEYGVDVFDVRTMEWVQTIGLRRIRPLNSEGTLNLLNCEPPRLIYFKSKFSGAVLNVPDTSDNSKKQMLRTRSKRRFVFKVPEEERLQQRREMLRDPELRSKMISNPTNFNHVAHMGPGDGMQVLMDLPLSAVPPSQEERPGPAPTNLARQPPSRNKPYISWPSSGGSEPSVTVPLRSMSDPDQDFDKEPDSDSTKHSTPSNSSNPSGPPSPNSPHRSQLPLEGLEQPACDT", "assay": "Selectivity interaction (KinomeScan (DiscoverX)) EUB0001049a CDC42BPB", "conditions": "at 1 µM"}, "[9]": {"target": "Ribosomal protein S6 kinase beta-1 (Homo sapiens, UniProt P23443)", "sequence (P23443 whole entry, looked up)": "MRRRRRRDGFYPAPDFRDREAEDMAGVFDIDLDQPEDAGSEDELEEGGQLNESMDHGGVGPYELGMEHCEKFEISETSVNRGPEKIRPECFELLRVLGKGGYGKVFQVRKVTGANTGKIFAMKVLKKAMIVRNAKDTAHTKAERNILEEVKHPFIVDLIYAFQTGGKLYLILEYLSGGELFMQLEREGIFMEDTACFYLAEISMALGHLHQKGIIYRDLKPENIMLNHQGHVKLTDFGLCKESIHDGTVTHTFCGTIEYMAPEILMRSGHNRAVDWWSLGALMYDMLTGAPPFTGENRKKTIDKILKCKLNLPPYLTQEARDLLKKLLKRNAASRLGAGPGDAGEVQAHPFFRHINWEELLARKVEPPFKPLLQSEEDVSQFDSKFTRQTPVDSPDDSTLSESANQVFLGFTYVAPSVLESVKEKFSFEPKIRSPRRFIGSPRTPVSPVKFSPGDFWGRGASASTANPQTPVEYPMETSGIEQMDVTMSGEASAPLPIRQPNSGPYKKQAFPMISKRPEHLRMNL", "assay": "Selectivity interaction (KinomeScan (DiscoverX)) EUB0001619a RPS6KB1", "conditions": "at 1 µM"}},
  "data": [
    {"smiles": "CCC(=O)N1CCN(c2ccc(-n3c(=O)ccc4cnc5ccc(-c6cnc7ccccc7c6)cc5c43)cc2C(F)(F)F)CC1", "values": [
      {"measurement": "% of control", "setting": "[1]", "result": 70, "unit": "%"}
    ]},
    {"smiles": "CN(C)CCOc1ccc(-c2nc(-c3ccncc3)c(-c3ccc4c(c3)CC/C4=N\\O)[nH]2)cc1", "values": [
      {"measurement": "% of control", "setting": "[2]", "result": 100, "unit": "%"}
    ]},
    {"smiles": "C=CC(=O)Nc1cccc(C(=O)Nc2ccc(Nc3cc(-c4[nH]c(SC)nc4C)ccn3)cc2)c1", "values": [
      {"measurement": "% of control", "setting": "[3]; at 1 µM", "result": 103, "unit": "%"},
      {"measurement": "% of control", "setting": "[3]; at 5 µM", "result": 85, "unit": "%"}
    ]},
    {"smiles": "Nc1cnc(N2CCc3cc(S(=O)(=O)Nc4c(F)cc(Cl)cc4F)cc(N4CCCC4=O)c32)nc1", "note": "[TP-020n]", "values": [
      {"measurement": "% of control", "setting": "[4]", "result": 100, "unit": "%"}
    ]},
    {"smiles": "CC(=O)Nc1cccc(-n2c(=O)n(C3CC3)c(=O)c3c(Nc4ccc(I)cc4F)n(C)c(=O)c(C)c32)c1", "values": [
      {"measurement": "% of control", "setting": "[5]", "result": 94, "unit": "%"}
    ]},
    {"smiles": "CNC(=O)Nc1ccc(-c2nc(N3CC4CCC(C3)O4)c3cnn(C4CCC5(CC4)OCCO5)c3n2)cc1", "values": [
      {"measurement": "% of control", "setting": "[6]", "result": 11, "unit": "%"},
      {"measurement": "% of control", "setting": "[7]", "result": 5, "unit": "%"}
    ]},
    {"smiles": "COc1cc(Nc2nc(C)cc(-c3cnn4nc(OC)ccc34)n2)cc(C(F)(F)F)c1", "values": [
      {"measurement": "% of control", "setting": "[8]", "result": 85, "unit": "%"}
    ]},
    {"smiles": "N#Cc1cccc(-c2c[nH]c3ncnc(N4CCOCC4)c23)c1", "values": [
      {"measurement": "% of control", "setting": "[9]", "result": 100, "unit": "%"}
    ]}
  ]
}
